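Cultured in 96-well plates, cells were exposed to test compound for 48 hours across five concentrations. GI50 is the concentration that inhibits growth by half.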 The source made the active and inactive calls. Rule as the data show it: active = GI50 up to about 1.1 µM and inactive = higher.
Legend:
Assay in all cases: NCI anticancer screen, dose series, 48 h
[1] = test system: SF-295
[2] = test system: SK-MEL-2
[3] = test system: HL-60
[4] = test system: HCT-15
[5] = test system: NCI-H23
[6] = test system: RPMI-8226
[7] = test system: KM-20L2
[8] = test system: OVCAR-4
[9] = test system: A549
[10] = test system: SK-MEL-5
[11] = test system: NCI-H226
[12] = test system: CCRF-CEM
[13] = test system: NCI-H460
[14] = test system: UACC-257
[15] = test system: DMS-114
[16] = test system: SR
[17] = test system: HCT-116
[18] = test system: NCI/ADR-RES
[19] = test system: MDA-MB-231
[20] = test system: T47D

Row | SMILES | GI50 [1] | GI50 [2] | GI50 [3] | GI50 [4] [µM] | GI50 [5] | GI50 [6] | GI50 [7] | GI50 [8] | GI50 [9] | GI50 [10] | GI50 [11] | GI50 [12] | GI50 [13] | GI50 [14] | GI50 [15] | GI50 [16] | GI50 [17] | GI50 [18] | GI50 [19] | GI50 [20]
1 | C[C@]12CCC3[C@@H](CC[C@@H]4c5nonc5CC[C@]34C)C1CC[C@@H]2O (some centres undefined) | 34.8 µM (inactive) | 22.6 µM (inactive) | 18.3 µM (inactive) | 28.4 | 32.1 µM (inactive) | 14.5 µM (inactive) | 43.7 µM (inactive) | 27.3 µM (inactive) | 25.5 µM (inactive) | 18.4 µM (inactive) | 38.3 µM (inactive) | 22 µM (inactive) | 25.9 µM (inactive) | 19.8 µM (inactive) | 29.2 µM (inactive) |  |  |  |  | 
2 | CCN(CC)CC(C)(C)C(=O)/C=C/c1cccc(/C=C/C(=O)C(C)(C)CN(CC)CC)c1 | 1.74 µM (inactive) |  |  | 0.461 | 1.3 µM (inactive) | 2.06 µM (inactive) | 1.07 µM (active) | 0.442 µM (active) | 1.33 µM (inactive) | 1.59 µM (inactive) | 1.76 µM (inactive) | 0.337 µM (active) | 0.692 µM (active) | 1.22 µM (inactive) | 0.307 µM (active) | 0.305 µM (active) | 0.361 µM (active) |  |  | 
3 | C1=Cc2nc1c(-c1ccncc1)c1ccc([n-]1)c(-c1ccncc1)c1nc(c(-c3ccncc3)c3ccc([n-]3)c2-c2ccncc2)C=C1.[Zn+2] | > 100 µM (inactive) | > 100 µM (inactive) | > 100 µM (inactive) | > 100 | > 100 µM (inactive) | > 100 µM (inactive) | > 100 µM (inactive) | > 100 µM (inactive) | > 100 µM (inactive) | > 100 µM (inactive) | > 100 µM (inactive) | > 100 µM (inactive) | > 100 µM (inactive) | > 100 µM (inactive) | > 100 µM (inactive) |  | > 100 µM (inactive) |  |  | 
4 | O=C(COc1ccccc1Cl)N1N=C(c2ccc(Cl)cc2)CC1(O)c1ccccc1 (centres undefined) | > 100 µM (inactive) | > 100 µM (inactive) | > 100 µM (inactive) | > 100 | > 100 µM (inactive) | > 100 µM (inactive) | > 100 µM (inactive) | > 100 µM (inactive) | > 100 µM (inactive) |  | > 100 µM (inactive) |  | > 100 µM (inactive) | > 100 µM (inactive) |  | > 100 µM (inactive) | > 100 µM (inactive) |  |  | 
5 | COc1ccc(-c2cc(-c3ccco3)c(C#N)c(=O)n2C2OC(OC(=O)c3ccccc3)C(OC(=O)c3ccccc3)C2OC(=O)c2ccccc2)cc1 (centres undefined) | 50.2 µM (inactive) | > 100 µM (inactive) |  | > 100 | > 100 µM (inactive) | > 100 µM (inactive) | > 100 µM (inactive) | > 100 µM (inactive) |  | > 100 µM (inactive) | > 100 µM (inactive) | > 100 µM (inactive) | > 100 µM (inactive) | > 100 µM (inactive) | > 100 µM (inactive) | > 100 µM (inactive) | 40.2 µM (inactive) |  |  | 
6 | S=c1sc2c(Cl)ncnc2n1-c1ccccc1 | 12.8 µM (inactive) | 8.81 µM (inactive) |  | 15.1 | 17.4 µM (inactive) | 23.8 µM (inactive) | 19.1 µM (inactive) | 18.8 µM (inactive) | 28.8 µM (inactive) | 16.1 µM (inactive) | 13.4 µM (inactive) |  | 15.7 µM (inactive) | 15.5 µM (inactive) | 13.6 µM (inactive) | 3.27 µM (inactive) | 5.66 µM (inactive) |  |  | 
7 | COc1ccc(C(=O)O/N=C2/CCCCC2CN(C)C)cc1 (centres undefined) | > 100 µM (inactive) | > 100 µM (inactive) | > 100 µM (inactive) | > 100 | > 100 µM (inactive) | > 100 µM (inactive) | > 100 µM (inactive) | > 100 µM (inactive) | > 100 µM (inactive) | > 100 µM (inactive) | > 100 µM (inactive) | > 100 µM (inactive) | > 100 µM (inactive) | > 100 µM (inactive) |  | > 100 µM (inactive) | > 100 µM (inactive) |  |  | 
8 | CNC(=O)CN(CC(N)=O)C(=O)NC | > 100 µM (inactive) | > 100 µM (inactive) | > 100 µM (inactive) | > 100 | > 100 µM (inactive) | > 100 µM (inactive) | > 100 µM (inactive) | > 100 µM (inactive) | > 100 µM (inactive) | > 100 µM (inactive) | > 100 µM (inactive) | > 100 µM (inactive) | > 100 µM (inactive) |  |  | > 100 µM (inactive) |  |  |  | 
9 | Cc1ccc(NCC(=O)N2CC(=O)Nc3ccccc32)c(C)c1 | > 100 µM (inactive) | > 100 µM (inactive) | > 100 µM (inactive) | > 100 | > 100 µM (inactive) | > 100 µM (inactive) | > 100 µM (inactive) | > 100 µM (inactive) | > 100 µM (inactive) | > 100 µM (inactive) | > 100 µM (inactive) | > 100 µM (inactive) | > 100 µM (inactive) | > 100 µM (inactive) |  | > 100 µM (inactive) | > 100 µM (inactive) |  |  | 
10 | N#CC(c1ccccc1)c1nc2ccc(N)cc2[n+]([O-])c1C(C#N)c1ccccc1 (centres undefined) | > 100 µM (inactive) | 40.2 µM (inactive) | 34.9 µM (inactive) | 46 | 67.8 µM (inactive) |  | 75.3 µM (inactive) | 74 µM (inactive) | 57.8 µM (inactive) | 1 µM (active) | > 100 µM (inactive) | 46.6 µM (inactive) | 73.3 µM (inactive) | > 100 µM (inactive) |  | 23.8 µM (inactive) | 54.1 µM (inactive) |  |  | 
11 | O=C(CSc1nc2ccc(I)cc2c(=O)n1Cc1ccccc1)NNC(=O)c1ccccc1 | 11.4 µM (inactive) | 6.08 µM (inactive) | > 100 µM (inactive) | 16.5 | 17.6 µM (inactive) | 3.52 µM (inactive) |  | 8.99 µM (inactive) | 11.9 µM (inactive) | 10.3 µM (inactive) | 3.78 µM (inactive) | 49.7 µM (inactive) | 17.3 µM (inactive) | 18 µM (inactive) |  | 11.5 µM (inactive) | 19.7 µM (inactive) | 13.6 µM (inactive) | 10.5 µM (inactive) | 10.6 µM (inactive)
12 | NC(C(F)(F)F)(C(F)(F)F)P(=O)(c1ccccc1)c1ccccc1 | > 100 µM (inactive) | > 100 µM (inactive) | > 100 µM (inactive) | > 100 | > 100 µM (inactive) | > 100 µM (inactive) |  | > 100 µM (inactive) | > 100 µM (inactive) | > 100 µM (inactive) | > 100 µM (inactive) | > 100 µM (inactive) | > 100 µM (inactive) | > 100 µM (inactive) |  | > 100 µM (inactive) | > 100 µM (inactive) | > 100 µM (inactive) | > 100 µM (inactive) | > 100 µM (inactive)
13 | CC(=O)Oc1c2c(c(CC=C(C)C)c3c1C(=O)C1=C[C@@H]4CC5C(C)(C)OC(C/C=C(/C)C(=O)O)(C4=O)[C@@]15O3)OC(C)(CCC=C(C)C)C=C2 (some centres undefined) | 0.454 µM (active) | 0.305 µM (active) | 0.0408 µM (active) | 0.244 | 0.197 µM (active) | 0.184 µM (active) |  | 0.177 µM (active) | 0.188 µM (active) | 0.378 µM (active) | 0.313 µM (active) | 0.101 µM (active) | 0.486 µM (active) | 0.384 µM (active) |  | 0.258 µM (active) | 0.149 µM (active) | 0.525 µM (active) | 0.227 µM (active) | 0.12 µM (active)
14 | CC(=O)O[C@H]1CCC2[C@@H]3CCC4=C(O)c5nocc5C[C@]4(C)C3CC[C@@]21C (some centres undefined) | > 100 µM (inactive) | > 100 µM (inactive) |  | > 100 | > 100 µM (inactive) | > 100 µM (inactive) | > 100 µM (inactive) | > 100 µM (inactive) | > 100 µM (inactive) | > 100 µM (inactive) | > 100 µM (inactive) | > 100 µM (inactive) | > 100 µM (inactive) | > 100 µM (inactive) | > 100 µM (inactive) |  | > 100 µM (inactive) |  |  | 
15 | Cc1ccc(S(=O)(=O)N/N=c2/sc3ccccc3n2C)cc1 | > 100 µM (inactive) | > 100 µM (inactive) | > 100 µM (inactive) | > 100 | > 100 µM (inactive) | > 100 µM (inactive) |  | > 100 µM (inactive) | > 100 µM (inactive) | > 100 µM (inactive) | > 100 µM (inactive) | > 100 µM (inactive) | > 100 µM (inactive) | > 100 µM (inactive) |  | > 100 µM (inactive) | > 100 µM (inactive) | > 100 µM (inactive) | > 100 µM (inactive) | > 100 µM (inactive)
16 | CC(=O)OC1=C(c2ccccc2)S(=O)(=O)c2ccccc21 | > 100 µM (inactive) | > 100 µM (inactive) | > 100 µM (inactive) | > 100 | > 100 µM (inactive) | > 100 µM (inactive) |  | > 100 µM (inactive) | > 100 µM (inactive) | > 100 µM (inactive) | > 100 µM (inactive) | 96.4 µM (inactive) | > 100 µM (inactive) | > 100 µM (inactive) |  | > 100 µM (inactive) | > 100 µM (inactive) | > 100 µM (inactive) | > 100 µM (inactive) | > 100 µM (inactive)
17 | Cc1cc(N=C2C=C(Br)C(=O)C(Br)=C2)cc(CN(CC(=O)O)CC(=O)O)c1O | > 100 µM (inactive) | > 100 µM (inactive) | > 100 µM (inactive) | > 100 | > 100 µM (inactive) | > 100 µM (inactive) |  | > 100 µM (inactive) | > 100 µM (inactive) | > 100 µM (inactive) | > 100 µM (inactive) | > 100 µM (inactive) | > 100 µM (inactive) | > 100 µM (inactive) |  | > 100 µM (inactive) | > 100 µM (inactive) | > 100 µM (inactive) | > 100 µM (inactive) | > 100 µM (inactive)

Source: ChEMBL document CHEMBL1201862, “PubChem BioAssay data set” (2004)
